Laboratory results taken from patent US6403535B1, “Substituted thiazol(in) ylideneamino sulfonylamino (thio)carbonyl-triazolinones” (Bayer Aktiengesellschaft, priority 1998, dated 2002).

Key:
weeds [1] = experiment: Pre-emergence test, activity against weeds; assay type: in vivo
Description: (§1) To produce a suitable preparation of active compound, 1 part by weight of active compound is mixed with the stated amount of solvent, the stated amount of emulsifier is added and the concentrate is diluted with water to the desired concentration.
(§2) Seeds of the test plants are sown in normal soil. After about 24 hours, the soil is sprayed with the preparation of active compound such that the particular amount of active compound desired is applied per unit area. The concentration of the spray liquor is chosen so that the particular amount of active compound desired is applied in 1000 liters of water per hectare.
(§3) After three weeks, the degree of damage to the plants is rated in % damage in comparison to the development of the untreated control.
(§4) 0%=no effect (like untreated control)

Amaranthus [2] = experiment: Pre-emergence test/greenhouse; assay type: in vivo; settings: 504 h, after three weeks, read-out: degree of damage, Amaranthus; for pest or weed control at 125 g/ha: 125 g of a.i./ha
Description: as §1, §2, §3, §4

Chenopodium [3] = experiment: Pre-emergence test/greenhouse; assay type: in vivo; settings: after three weeks
Description: as §1, §2, §3, §4

Echinochloa [4] = experiment: Pre-emergence test/greenhouse; assay type: in vivo; settings: 504 h, after three weeks, read-out: degree of damage, Echinochloa; for pest or weed control at 125 g/ha: 125 g of a.i./ha
Description: as §1, §2, §3, §4

Matricaria [5] = experiment: Pre-emergence test/greenhouse; assay type: in vivo; settings: 504 h, after three weeks, read-out: degree of damage, Matricaria; for pest or weed control at 125 g/ha: 125 g of a.i./ha
Description: as §1, §2, §3, §4

Veronica [6] = experiment: Pre-emergence test/greenhouse; assay type: in vivo; settings: 504 h, after three weeks, read-out: degree of damage, Veronica; for pest or weed control at 125 g/ha: 125 g of a.i./ha
Description: as §1, §2, §3, §4

weeds [7] = experiment: Post-emergence test, activity against weeds; assay type: in vivo
Description: as §1
(§5) Test plants of a height of 5 -15 cm are sprayed with the preparation of active compound such that the particular amounts of active compound desired are applied per unit area. The concentration of the spray liquor is chosen so that the particular amounts of active compound desired are applied in 1000 l of water/ha.
as §3, §4

Abutilon = experiment: Post-emergence test/greenhouse; assay type: in vivo; settings: 504 h, after three weeks, read-out: degree of damage, Abutilon; for pest or weed control at 60 g/ha: 60 g of a.i./ha
Description: as §1, §5, §3, §4

Amaranthus [8] = experiment: Post-emergence test/greenhouse; assay type: in vivo; settings: 504 h, after three weeks, read-out: degree of damage, Amaranthus; for pest or weed control at 60 g/ha: 60 g of a.i./ha
Description: as §1, §5, §3, §4

Chenopodium [9] = experiment: Post-emergence test/greenhouse; assay type: in vivo; settings: 504 h, after three weeks, read-out: degree of damage, Chenopodium; for pest or weed control at 60 g/ha: 60 g of a.i./ha
Description: as §1, §5, §3, §4

Matricaria [10] = experiment: Post-emergence test/greenhouse; assay type: in vivo; settings: 60 g of a.i./ha, after three weeks
Description: as §1, §5, §3, §4

Stellaria = experiment: Post-emergence test/greenhouse; assay type: in vivo; settings: 504 h, after three weeks, read-out: degree of damage, Stellaria; for pest or weed control at 60 g/ha: 60 g of a.i./ha
Description: as §1, §5, §3, §4

Veronica [11] = experiment: Post-emergence test/greenhouse; assay type: in vivo; settings: 60 g of a.i./ha, after three weeks
Description: as §1, §5, §3, §4

Polygonum = experiment: Post-emergence test/greenhouse; assay type: in vivo; settings: 60 g of a.i./ha, after three weeks
Description: as §1, §5, §3, §4

Solanum = experiment: Post-emergence test/greenhouse; assay type: in vivo; settings: 504 h, after three weeks, read-out: degree of damage, Solanum
Description: as §1, §5, §3, §4

Digitaria = experiment: Pre-emergence test/greenhouse; assay type: in vivo; settings: 125 g of a.i./ha, after three weeks
Description: as §1, §2, §3, §4

Maize = experiment: Pre-emergence test/greenhouse; assay type: in vivo; settings: 125 g of a.i./ha, after three weeks, 0%=no effect, 100%=total destruction
Description: as §1, §2, §3, §4

Setaria [12] = experiment: Pre-emergence test/greenhouse; assay type: in vivo; settings: after three weeks
Description: as §1, §2, §3, §4

Sugar beet = experiment: Pre-emergence test/greenhouse; assay type: in vivo; settings: 125 g of a.i./ha, after three weeks, 0%=no effect, 100%=total destruction
Description: as §1, §2, §3, §4

Setaria [13] = experiment: Post-emergence test/greenhouse; assay type: in vivo; settings: 125 g of a.i./ha, after three weeks
Description: as §1, §5, §3, §4

Echinochloa [14] = experiment: Post-emergence test/greenhouse; assay type: in vivo; settings: 60 g of a.i./ha, after three weeks
Description: as §1, §5, §3, §4

Sorghum = experiment: Post-emergence test/greenhouse; assay type: in vivo; settings: 60 g of a.i./ha, after three weeks
Description: as §1, §5, §3, §4

Structure (SMILES)	activity against weeds (weeds [1])	pest or weed control at 125 g/ha (Amaranthus [2])	degree of damage, Chenopodium (Chenopodium [3]; 125 g of a.i./ha)	pest or weed control at 125 g/ha (Echinochloa [4])	pest or weed control at 125 g/ha (Matricaria [5])	pest or weed control at 125 g/ha (Veronica [6])	activity against weeds (weeds [7])	pest or weed control at 60 g/ha (Abutilon)	pest or weed control at 60 g/ha (Amaranthus [8])	pest or weed control at 60 g/ha (Stellaria)	degree of damage, Veronica (Veronica [11])	melting point	other results
CCOc1nn(C(=O)NS(=O)(=O)/N=c2\sccn2CCCF)c(=O)n1C1CC1 [Example 130]	very strong activity	100%	100%	100%	100%	100%	very strong activity	95%	100%	95%	100%	180 °C	pest or weed control at 60 g/ha (Chenopodium [9]): 100%; degree of damage, Matricaria (Matricaria [10]): 100%
CC(C)Oc1nn(C(=O)NS(=O)(=O)/N=c2/sccn2CCCF)c(=O)n1C [Example 125]	very strong activity	70%	95%	90%	100%	100%	very strong activity	90%		90%		170 °C	degree of damage, Polygonum (Polygonum): 90%; pest or weed control at 60 g/ha (Solanum; 60 g of a.i./ha): 90%
CCCn1ccs/c1=N\S(=O)(=O)NC(=O)n1nc(OCC)n(C2CC2)c1=O [Example 30]	very strong activity	100%	100%	95%	100%	100%							degree of damage, Digitaria (Digitaria): 90%
CC(C)Oc1nn(C(=O)NS(=O)(=O)/N=c2\sccn2CCCF)c(=O)n1C1CC1 [Example 131]	very strong activity	100%	95%	80%	100%	95%	very strong activity	90%	100%	95%	90%	154 °C	pest or weed control at 60 g/ha (Chenopodium [9]): 95%; degree of damage, Matricaria (Matricaria [10]): 95%
COc1nn(C(=O)NS(=O)(=O)/N=c2\sccn2CCCF)c(=O)n1C [Example 124]	very strong activity	70%		90%	100%	95%						189 °C	degree of damage, Maize (Maize): 0%; degree of damage, Setaria (Setaria [12]; 125 g of a.i./ha): 95%; degree of damage, Sugar beet (Sugar beet): 0%
CCCn1ccs/c1=N\S(=O)(=O)NC(=O)n1nc(OC(C)C)n(C2CC2)c1=O [Example 33]	very strong activity	100%	100%	80%	100%	95%	very strong activity						pest or weed control at 125 g/ha (Abutilon; 125 g of a.i./ha): 100%; pest or weed control at 125 g/ha (Amaranthus [8]; 125 g of a.i./ha): 100%; pest or weed control at 125 g/ha (Chenopodium [9]; 125 g of a.i./ha): 100%; degree of damage, Setaria (Setaria [13]): 80%; pest or weed control at 125 g/ha (Solanum; 125 g of a.i./ha): 95%; pest or weed control at 125 g/ha (Stellaria; 125 g of a.i./ha): 95%
CCOc1nn(C(=O)NS(=O)(=O)/N=c2\sccn2CCCF)c(=O)n1C [Example 1]	very strong activity						very strong activity		95%		90%	178 °C	pest or weed control at 60 g/ha (Amaranthus [2]; 60 g of a.i./ha): 100%; pest or weed control at 60 g/ha (Echinochloa [4]; 60 g of a.i./ha): 100%; pest or weed control at 60 g/ha (Matricaria [5]; 60 g of a.i./ha): 100%; degree of damage, Setaria (Setaria [12]; 60 g of a.i./ha): 100%; pest or weed control at 60 g/ha (Veronica [6]; 60 g of a.i./ha): 100%; degree of damage, Echinochloa (Echinochloa [14]): 95%; degree of damage, Polygonum (Polygonum): 90%; degree of damage, Sorghum (Sorghum): 95%
CCCn1ccs/c1=N\S(=O)(=O)NC(=O)n1nc(OCC)n(C2CC2)c1=O [Example 56]													pest or weed control at 250 g/ha (Amaranthus [2]; 250 g of a.i./ha): 100%; degree of damage, Chenopodium (Chenopodium [3]; 250 g of a.i./ha): 100%; pest or weed control at 250 g/ha (Matricaria [5]; 250 g of a.i./ha): 100%; degree of damage, Setaria (Setaria [12]; 250 g of a.i./ha): 100%; pest or weed control at 250 g/ha (Veronica [6]; 250 g of a.i./ha): 100%
